The values below come from patent US7718768B2, “Biologically active peptide [sequence]” (CMS Peptides Patent Holding Company Limited, priority 2001, dated 2010).

One test relates to anti-SRBC antibody. The test is described as follows: humoral immunity (SRBC hemolysis index) of mice bearing transplanted B16 melanoma. The format is in vivo, C57BL/6 mice. More on the design: key: index = (OD540 of test sample ÷ reference OD540) × 500. On the procedure: Intraperitoneal injection, once per day. […] Treatment of all groups with testing substance lasted for 30 days or until the animal died unless otherwise specified.
Stock B16 mouse melanoma cells were incubated in DMEM/F12 medium supplemented with 10% fetal bovine serum, 37° C./5% CO2 for 72 hrs, then washed 3-4 times with Hank's solution. The cell concentration was adjusted to 1×10^5 per ml with Hank's solution and 0.1 ml of the cell suspension was injected via the tail vein into the testing mice to generate the B16 melanoma bearing animal model. Treatment with test substance started as described in section Method 1.
Sheep red blood cells (SRBC) were prepared by collecting blood from the cervical vein and put into a sterile flask with glass beads. The flask was shaken for 3 minutes and the blood then mixed with Alsever solution (glucose 2.05 g, NaCl 0.4 g, […] 0.8 g, adjust to 100 ml with distilled water) and stored at 4° C. Immediately before use, samples were centrifuged at 130 g, 5 minutes to collect the SRBC. The cells were washed two times by re-suspension and centrifugation in normal saline. Then the cell pellet was collected by centrifugation at 180 g for 10 minutes and re-suspended in saline to make the final working SRBC suspension, 2% (v/v).
Complement was prepared by adding 10 volumes of fresh Cavy serum into one volume centrifuge packed SRBC, and then gently shaken for 30 minutes at 4° C. The SRBC was removed by centrifugation at 200 g for 10 minutes. 10 volumes of normal saline were added to obtain the working complement solution.
On the testing animals, on the 27th date of test substance treatment, 0.2 ml of the working SRBC cell suspension was injected into each animal to raise antibody. On the day after the last test substance administration, blood was collected from the eye canthus and left at room temperature for one hour for serum exudation. After centrifugation at 200 g for 10 minutes, the collected serum was diluted by 500 times with normal saline.
To 1 ml diluted mouse serum of each mouse, 0.5 ml SRBC suspension was added. Ice cold. Then 1 ml working complement solution was added and incubated at 37° C. water bath for 10 minutes. Reactions were terminated by ice cold. Samples were then centrifuged at 200 g for 10 minutes to obtain the supernatant.
To 1 ml of this supernatant, 3 ml Drabkin solution was added and left at room temperature for 10 minutes. OD540nm was obtained.
Reference OD540nm was obtained by mixing 0.25 ml SRBC suspension with Drabkin solution to 4 ml and placed at room temperature for 10 minutes before OD540nm was taken. Hemolysis index=(OD540nm of test sample÷reference OD540 nm)×500 6.2 After the Humoral Immunity Study, the Mice were Killed by Cervical Vertebra Dislocation. Postmortum Examination of the Animals was Performed. The Pathological Changes were Recorded, and the Numbers of Melanoma Lung Metastasis Foci were Counted. Results 1. The Effect of Peptide on the Cellular Phagocytosis in BALB/c Mice with Transplanted S180 Sarcoma (Method 2.1)

Test [1] has as its system T lymphocyte. The test is described as follows: T lymphocyte IL-2 secretion test (HT-2 cell bioassay of ConA supernatant). Format: in vivo, BALB/c mice. Conditions: IFN-γ and IL-2 groups 3×10^5 IU/kg/day, X ± SD. The protocol:
The above substances were all dissolved in 0.5 ml saline and injected intraperitoneal (i.p.) for 15 continuous days, once per day.
Spleen cells of density 1×10^6/ml were placed onto a 96 wells cell culture plate, 100 μl/well, three parallel wells each of the assay sample and control sample per mouse. To the assay wells, 100 μl/well ConA of 100 μg/ml in RPMI-1640 was added, and 100 μl/well plain RPMI-1640 was used for the controls. The cells were incubated for 66 hrs at 37° C., 5% CO2. The cells were then pelleted by centrifugation at 150 g for 10 minutes.
HT-2 cells at log phase were collected by centrifugation at 150 g for 10 minutes, and washed three times with cold Hank's solution by re-suspension and centrifugation. The collected HT-2 cells were re-suspended in RPMI-1640 and incubated at 37° C., 5% CO2 for 30 minutes. The cells were further washed twice with RPMI-1640 by re-suspension and centrifugation, and re-suspended to final concentration of 2×10^5/ml with RPMI-1640.
rIL-2 was diluted to the following concentration with RPMI-1640: 500 IU/ml, 250 IU/ml, 125 IU/ml, 62.5 IU/ml, 31.25 IU/ml, and […].
A 96 well cell culture plate was set up with three parallel wells per combination:
Negative control: 100 μl RPMI-1640+100 μl HT-2 cell suspension
rIL-2 standard: 100 μl rIL-2 solution+100 μl HT-2 cell suspension
Assay well: 100 μl diluted supernatant+100 μl HT-2 cell suspension
The plate was incubated at 37° C., 5% CO2 for 68 hours, then centrifuged at 150 g for 15 minutes and the supernatant removed. 100 μl 0.5 mg/ml MTT in RPMI-1640 without phenolsulfonphthalein was added into each well. After shaking for 3-4 minutes to re-suspend the cells, continue to incubate for another 4 hours. Samples were then centrifuged at 150 g for 15 minutes and the supernatant was removed. To each well, 120 μl 40 mM HCl-2-propanol was added, mixed for 3-4 minutes and OD analyzed at 570 nm, referenced at 630 nm with an ELISA plate reader.
The average OD of the three parallel wells of each dilution was taken and plotted against concentration on a semi-log paper, concentration on the X-axis. The concentration at 50% OD saturation was obtained for both the testing supernatant and rIL-2.

Test [2] relates to T lymphocyte. The arrangement: species or system BALB/c mice. Conditions: mouse, in vivo, ip.
The mark [3] stands for this setting: peptide 50 μg/kg/day i.p. 15 days.
[4] abbreviates: peptide 500 μg/kg/day i.p. 15 days.
Setting [5] is: peptide 0.5 μg/kg/day i.p. 15 days.

Several values for one entry are separate records, joined by “and”; a condition that tells them apart may be missing. Identical values can stand only once. Marks after values point to notes of the source that are not given here. No end group written: not given here.

For the molecule PTTKTYFPHF [CMS001], the Hemolysis index in the test with anti-SRBC antibody (0.5 μg/kg i.p. once per day) is listed as 51.0 ± 16.2*^$; with anti-SRBC antibody (5 μg/kg i.p. once per day) it was 41.3 ± 17.7*^$; in the test on anti-SRBC antibody (50 μg/kg i.p. once per day) it was 45.0 ± 31.9*^$; with anti-SRBC antibody (500 μg/kg i.p. once per day) it was 36.0 ± 10.2*^$. Further, the “activity of T lymphocyte in secreting IL-2” value (“activity … in secreting IL-2” below) in the test with T lymphocyte [1] (setting [3]) is reported as 60 ± 10 IU.
Take LRVAPEEHPTL [CMS009]: in the test with T lymphocyte [2], the “activity of T lymphocyte in secreting IFN” value (“activity … in secreting IFN” for short) is listed as 121 ± 15*^ IU. The “activity … in secreting IL-2” value in the test on T lymphocyte [1] (setting [4]) is reported as 114 ± 13*^@^ IU.
Consider “Tyr Ser Leu (YSL; listed as Sus scrofa) [CMS024]”, for which the Hemolysis index in the test on anti-SRBC antibody (0.5 μg/kg i.p. once per day) is 43.0 ± 10.7*^$; in the test with anti-SRBC antibody (5 μg/kg i.p. once per day), 42.2 ± 11.8*^$; in the test on anti-SRBC antibody (50 μg/kg i.p. once per day) it was 27.8 ± 9.1; in the test on anti-SRBC antibody (500 μg/kg i.p. once per day) it was 30.1 ± 10.0.
Regarding VGMGQKDSY [CMS019], the Hemolysis index in the test with anti-SRBC antibody (0.5 μg/kg i.p. once per day) was 42.0 ± 12.0*^$; in the test with anti-SRBC antibody (5 μg/kg i.p. once per day), 35.4 ± 15.1*^$; in the test on anti-SRBC antibody (50 μg/kg i.p. once per day) it was 28.3 ± 7.6.
As for RVAPEEHPTL [CMS011], the Hemolysis index in the test on anti-SRBC antibody (0.5 μg/kg i.p. once per day) came to 32.0 ± 14.7; in the test on anti-SRBC antibody (500 μg/kg i.p. once per day) it was 34.4 ± 19.4. In addition, in the test with T lymphocyte [2], the “activity … in secreting IFN” value is 89 ± 18 IU. Moreover, the “activity … in secreting IL-2” value in the test on T lymphocyte [1] (setting [5]) was 101 ± 19*^@^ IU.
As for “Phe Val Asn Asp (FVND; listed as Sus scrofa) [CMS035]”, the Hemolysis index in the test on anti-SRBC antibody (5 μg/kg i.p. once per day) is given as 38.9 ± 21.2*^$; with anti-SRBC antibody (50 μg/kg i.p. once per day) it was 44.7 ± 22.7*^$; in the test on anti-SRBC antibody (500 μg/kg i.p. once per day) it was 40.5 ± 25.8.
Take VAPEEHPTLLTEAPLNPK [CMS010]: the Hemolysis index in the test on anti-SRBC antibody (0.5 μg/kg i.p. once per day) is on record as 34.9 ± 10.5*^$; in the test with anti-SRBC antibody (5 μg/kg i.p. once per day), 51.0 ± 14.6*^$; in the test with anti-SRBC antibody (50 μg/kg i.p. once per day), 39.6 ± 7.7*^$; in the test with anti-SRBC antibody (500 μg/kg i.p. once per day), 50.1 ± 16.7*^$. Also, in the test on T lymphocyte [2], the “activity … in secreting IFN” value is 167 ± 13*^@^ IU and 142 ± 18*^@^ IU. Moreover, the “activity … in secreting IL-2” value with T lymphocyte [1] (setting [5]) is on record as 66 ± 11 IU; with T lymphocyte [1] (setting [4]), 125 ± 17*^@^ IU.
For “Pro Glu Asn Phe (PENF; listed as Sus scrofa) [CMS034]”, the Hemolysis index was 50.8 ± 18.4*^$ in the test on anti-SRBC antibody (0.5 μg/kg i.p. once per day), 43.0 ± 11.7*^$ in the test on anti-SRBC antibody (5 μg/kg i.p. once per day) and 30.2 ± 10.9 in the test on anti-SRBC antibody (50 μg/kg i.p. once per day). Also, in the test with T lymphocyte [1] (setting [5]), the “activity … in secreting IL-2” value is given as 85 ± 10*^ IU.
FNFVPP [CMS003]: the Hemolysis index in the test with anti-SRBC antibody (0.5 μg/kg i.p. once per day) is 61.6 ± 26.9*^$; with anti-SRBC antibody (5 μg/kg i.p. once per day) it was 37.2 ± 15.9*^$; in the test on anti-SRBC antibody (50 μg/kg i.p. once per day), 38.7 ± 13.5*^$; in the test with anti-SRBC antibody (500 μg/kg i.p. once per day) it was 35.9 ± 13.0*^$. Besides, the “activity … in secreting IFN” value in the test on T lymphocyte [2] is given as 106 ± 16 IU. In the test on T lymphocyte [1] (setting [3]), the “activity … in secreting IL-2” value was 86 ± 9*^ IU.
On to IGMESAGIHETTY [CMS016], for which the Hemolysis index with anti-SRBC antibody (500 μg/kg i.p. once per day) is listed as 43.3 ± 29.9. For the same molecule, the “activity … in secreting IFN” value in the test on T lymphocyte [2] is listed as 162 ± 19*^@^ IU.
Regarding PSIVGRPRHQGVM [CMS015], the “activity … in secreting IL-2” value in the test on T lymphocyte [1] (setting [4]) was 85 ± 17*^ IU.
KAVGHLDDLPGAL [CMS008]: the Hemolysis index was 42.7 ± 18.4*^$ in the test on anti-SRBC antibody (0.5 μg/kg i.p. once per day), 38.9 ± 12.0*^$ in the test with anti-SRBC antibody (5 μg/kg i.p. once per day), 37.1 ± 16.7*^$ in the test on anti-SRBC antibody (50 μg/kg i.p. once per day) and 50.1 ± 17.8*^$ with anti-SRBC antibody (500 μg/kg i.p. once per day).

B1: IFN-γ: recombinant mouse interferon-γ, Beijing Biotech Inc.; positive control immunostimulant (protein, UniProt P01580 23-155, looked up)
Interferon gamma: HGTVIESLESLNNYFNSSGIDVEEKSLFLDIWRNWQKDGDMKILQSQIISFYLRLFEVLKDNQAISNNISVIESHLITTFFSNSKAKKDAFMSIAKFEVNNPQVQRQAFNELIRVVHQLLPESSLRKRKRSRC
Regarding B1, the Hemolysis index with anti-SRBC antibody (3 × 10^5 IU/kg i.p. once per day) is 60.5 ± 17.4. For the same molecule, in the test with T lymphocyte [2], the “activity … in secreting IFN” value was 139 ± 16 IU and 125 ± 18 IU and 124 ± 16 IU. Moreover, the “activity … in secreting IL-2” value in the test with T lymphocyte [1] (setting [5]) worked out at 87 ± 15 IU; in the test with T lymphocyte [1] (peptide 5 μg/kg/day i.p. 15 days), 96 ± 14 IU; in the test with T lymphocyte [1] (setting [3]), 99 ± 16 IU; with T lymphocyte [1] (setting [4]) it was 100 ± 18 IU.
